From US20060241082A1, “Modulating vesicular monoamine transporter trafficking and function: a novel approach for the treatment of parkinson's disease” (priority 2002, published 2006)
Structures can show the parent of a compound that is named as a salt.

Legend:
[1] = target: T1, DAT (Rattus norvegicus, UniProt P23977); assay: In vitro preincubation of striatal synaptosomes with MDMA: [3H]DA uptake and WIN35428 binding; assay type: biochemical; conditions: 10 μM inhibitor 5 min, then 10 μM MDMA 30 min at 37° C.
T1 construct: from tissue; host or cells: striatum of male Sprague-Dawley rats (synaptosomes, P2)
T1 sequence (P23977 whole entry): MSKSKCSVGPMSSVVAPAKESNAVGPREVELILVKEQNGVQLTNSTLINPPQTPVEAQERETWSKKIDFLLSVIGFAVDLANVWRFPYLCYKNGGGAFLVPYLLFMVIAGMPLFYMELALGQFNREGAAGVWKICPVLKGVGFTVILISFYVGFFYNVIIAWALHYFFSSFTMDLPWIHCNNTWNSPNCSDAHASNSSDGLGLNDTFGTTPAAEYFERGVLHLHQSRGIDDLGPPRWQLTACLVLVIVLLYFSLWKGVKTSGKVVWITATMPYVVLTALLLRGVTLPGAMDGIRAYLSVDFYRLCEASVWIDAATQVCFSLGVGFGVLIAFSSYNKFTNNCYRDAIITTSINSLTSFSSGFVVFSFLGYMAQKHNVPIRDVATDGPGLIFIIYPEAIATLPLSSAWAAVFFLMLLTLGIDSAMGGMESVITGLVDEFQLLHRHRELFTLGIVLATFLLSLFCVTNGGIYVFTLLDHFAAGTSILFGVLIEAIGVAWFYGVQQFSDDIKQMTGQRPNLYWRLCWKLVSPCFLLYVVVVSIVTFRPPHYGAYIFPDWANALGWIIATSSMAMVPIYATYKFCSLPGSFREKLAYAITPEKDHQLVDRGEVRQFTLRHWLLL
Procedure: (§1) Uptake of [^3H]DA was determined in striatal synaptosomes prepared according to the method described by Kokoshka et al. (1998). Briefly, fresh striatal tissue was homogenized in cold 0.32 M sucrose and centrifuged (800×g for 12 min; 4° C.). The supernatant (S1) was then centrifuged (22,000×g for 15 min; 4° C.), and the resulting pellet (P2) was resuspended in ice-cold modified Kreb's buffer (in mM: 126 NaCl, 4.8 KCl, 1.3 CaCl2, 16 sodium phosphate, 1.4 MgSO4, 11 dextrose, 1-ascorbic acid, pH 7.4). Assays were conducted in Kreb's buffer. Each assay tube contained synaptosomal tissue (i.e., resuspended P2 obtained from 1.5 mg of original wet weight striatal tissue) and 1 μM pargyline. Nonspecific values were determined in the presence of 100 μM cocaine. After preincubation of assay tubes for 10 min at 37° C., assays were initiated by the addition of [^3H]DA (0.5 nM final concentration). Samples were incubated at 37° C. for 3 min. Samples were then filtered through Whatman GF/B filters (Brandel, Gaithersburg, Md.) soaked previously in 0.05% polyethylenimine. Filters were washed rapidly 3 times with 3 ml of ice-cold 0.32 M sucrose using a Brandel filtering manifold. […] Remaining resuspended P2 samples were assayed for protein concentrations according to the method of Lowry et al. (1951). In MDMA preincubation experiments, samples were preincubated with 10 μM MDMA for 30 min at 37° C. After 30 min, resuspended P2 fractions were “washed” by centrifugation (22,000×g for 15 min; 4° C.). The resulting pellet (P3) was then resuspeded in ice-cold Kreb's buffer, and once again centrifuged (22,000×g for 15 min; 4° C.) to obtain a P4 pellet that was subsequently resuspended and assayed. [^3H]WIN35428 binding (0.5 nM final concentration) was conducted in phosphate-buffered 0.32 M sucrose, pH 7.4, with synaptosomes obtained from 2 mg (original wet weight) of striatal tissue per reaction tube, and samples were incubated on ice for 2 hr. Samples were then filtered through Whatman GF/B filters (Brandel, Gaithersburg, Md.) soaked previously in 0.05% polyethylenimine. Filters were washed rapidly 3 times with 3 ml of ice-cold 0.32 M sucrose using a Brandel filtering manifold. […] Remaining resuspended P2 samples were assayed for protein concentrations according to the method of Lowry et al. (1951).

[2] = test system: VMAT-2; assay: VMAT-2 immunoreactivity in striatal subcellular fractions (P2, P3, S3) of treated rats (Western blot); assay type: in vivo, rat; conditions: 1 h
Procedure: Striatal synaptosomes were prepared from rats decapitated 1 h after treatment as previously described (Fleckenstein et al., 1997). Briefly, striatal tissue was homogenized in cold 0.32 M sucrose and centrifuged (800×g for 12 min; 4° C.). The supernatant (S1) was then centrifuged (22,000×g for 15 min; 4° C.) and the resulting pellet (P2, synaptosomal fraction) was resuspended at 50 mg original wet weight/ml in cold water and a portion saved for western blot analysis. The remainder of the synaptosomal sample was centrifuged for 20 min at 22,000×g (4° C.) to pellet lysed synaptosomal membranes (P3, synaptosomal membrane fraction), which were then resuspended at 50 mg original wet weight/ml and saved for western blot analysis. Prior to resuspension of the plasmalemmal membrane fraction the supernatant (S3, vesicle-enriched fraction) was removed and saved for western blot analysis.
Binding of VMAT-2 antibody was performed using 60 μl aliquots of synaptosomal (P2), synaptosomal membrane (P3), or vesicle-enriched (S3) preparations. Each aliquot was added to 20 μl of loading buffer (final concentration: 2.25% sodium dodecyl sulfate, 18% glycerol, 180 mM Tris base (pH 6.8), 10% β-mercapto-ethanol and bromophenol blue), boiled for 10 min, and loaded on a 10% sodium dodecyl sulfate-polyacrylamide gel. Following electrophoresis, samples were transferred to polyvinlylidene difluoride membrane, blocked with 5% nonfat dry milk in Tris-buffered saline with tween (250 mM NaCl, 50 mM Tris pH 7.4 and 0.05% Tween 20), and probed with the VMAT-2 antibody (provided by J.W.H.). Bound antibody was visualized with HRP-conjugated goat anti-rabbit antibody, and antigen-antibody complexes were visualized by chemiluminescence. Multiple exposures of blots were obtained to ensure development within the linear range of the film. Bands on blots were quantified by densitometry using Kodak 1D image-analysis software.
Fresh striatal tissue was homogenized in ice-cold 0.32 M sucrose and centrifuged (800×g for 12 min; 4° C.). […] Resuspended tissue was aliquoted into two test tubes. One aliquot was centrifuged (22,000×g for 10 min; 4° C.) to separate plasmalemmal membranes from the synaptic vesicle-enriched fraction. The resulting supernatant (S3) contained the vesicular subcellular fraction of interest, and the pellets (P3; plasmalemmal membrane fraction) were resuspended in cold distilled deionized water.
VMAT-2 antibody was purchased from Chemicon (Temecula, Calif.; AB1767). Binding of VMAT-2 antibody was performed using 60 μl of whole synaptosomal, plasmalemmal membrane or vesicle subcellular fractions. Samples were added to 20 μl of loading buffer (final concentration: 2.25% SDS, 18% glycerol, 180 mM Tris Base (pH 6.8), 10% […] and bromophenol blue). Approximately 60 μg protein of the whole synaptosomal fraction, 40 μg protein of the plasmalemmal membrane fraction or 20 μg protein of the vesicle subcellular fraction was loaded per well in a 10% SDS-polyacrylamide gel. Following electrophoresis, samples were transferred to polyvinylidene difluoride hybridization transfer membrane (New England Nuclear (NEN), Boston, Mass.). All subsequent incubation steps were performed at room temperature while shaking. Each membrane was first blocked for 2 h in 100 ml of tris buffer saline with tween (TBST; 250 mM NaCl, 50 mM tris pH 7.4 and 0.05% tween 20) containing 5% nonfat dry milk. Each membrane was then incubated with anti-VMAT-2 antibody (1:4000 dilution) in 13 ml of TBST with 5% milk for 1 h and then washed 5 times (2×1 min wash; 3×5 min wash) in 70 ml TBST with 5% milk.

[3] = target: VMAT-2 (Mus musculus, UniProt Q8BRU6); assay: Vesicular [3H]dopamine uptake in striatal vesicles prepared from treated mice; assay type: in vivo; conditions: antagonist 2 mg/kg i.p. prior to each methamphetamine injection (4 x 10 mg/kg s.c.), 1 h
VMAT-2 (Mus musculus, UniProt Q8BRU6), sequence (Q8BRU6 whole entry): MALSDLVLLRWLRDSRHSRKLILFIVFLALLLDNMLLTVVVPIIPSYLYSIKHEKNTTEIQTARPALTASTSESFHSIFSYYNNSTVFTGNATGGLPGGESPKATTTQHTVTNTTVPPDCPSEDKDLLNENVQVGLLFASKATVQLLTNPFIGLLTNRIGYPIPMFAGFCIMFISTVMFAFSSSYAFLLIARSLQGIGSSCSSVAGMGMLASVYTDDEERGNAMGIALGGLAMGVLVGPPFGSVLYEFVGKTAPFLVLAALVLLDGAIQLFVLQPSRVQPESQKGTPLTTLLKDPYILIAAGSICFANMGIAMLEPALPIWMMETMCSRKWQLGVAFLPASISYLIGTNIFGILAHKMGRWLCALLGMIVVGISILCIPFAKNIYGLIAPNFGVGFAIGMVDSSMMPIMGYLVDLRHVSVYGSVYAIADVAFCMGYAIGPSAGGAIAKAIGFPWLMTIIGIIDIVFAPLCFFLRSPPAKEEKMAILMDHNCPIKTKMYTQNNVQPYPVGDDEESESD
Procedure: (A. E. Fleckenstein, et al., J. Pharmacol Exp Ther. (1997) 282:834-838). Briefly, fresh tissue was homogenized in ice-cold 0.32 M sucrose. The homogenate was centrifuged (800×g for 12 min; 4° C.), and the supernatant (S1) was carefully removed and centrifuged (22,000×g for 15 min; 4° C.) to obtain the synaptosomal-containing pellet (P2). The resulting P2 were resuspended and homogenized in ice-cold distilled deionized water. Osmolarity was restore by addition 25 mM HEPES and 100 mM potassium tartrate (final concentration; pH 7.5 at 4° C. respectively). […] The resultant S3 removed and MgSO4 added (final concentration of [1 mM] pH 7.5 at 4° C.) and centrifuged at 100,000×g for 45 min. The final P4 were resuspended at 50 mg/ml (original tissue wet weight).

[4] = target: T2, VMAT-2 (Rattus norvegicus, UniProt Q01827); assay: [3H]DHTBZ binding in purified striatal vesicles prepared from treated rats; conditions: rats
T2 sequence (Q01827 whole entry): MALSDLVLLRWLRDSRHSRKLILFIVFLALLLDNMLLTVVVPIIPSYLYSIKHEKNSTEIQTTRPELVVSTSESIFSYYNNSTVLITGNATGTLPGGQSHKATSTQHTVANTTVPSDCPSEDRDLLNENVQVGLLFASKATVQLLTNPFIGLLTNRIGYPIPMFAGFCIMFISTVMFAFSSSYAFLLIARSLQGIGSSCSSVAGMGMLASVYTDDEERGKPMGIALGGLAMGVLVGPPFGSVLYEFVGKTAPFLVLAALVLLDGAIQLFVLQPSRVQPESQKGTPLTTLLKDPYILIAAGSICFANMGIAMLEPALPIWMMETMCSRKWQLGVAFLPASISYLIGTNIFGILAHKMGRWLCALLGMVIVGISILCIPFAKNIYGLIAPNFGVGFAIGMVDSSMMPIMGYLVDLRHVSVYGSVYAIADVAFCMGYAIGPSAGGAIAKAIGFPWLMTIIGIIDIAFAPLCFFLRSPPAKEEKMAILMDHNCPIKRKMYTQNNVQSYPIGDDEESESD
Procedure: Synaptic vesicles were obtained from synaptosomes prepared from rat striatum as described above. Synaptosomes were resuspended and homogenized in cold distilled deionized water. Osmolarity was restored by addition of HEPES and potassium tartrate 245 and 100 mM (final concentrations; pH 7.5), respectively. Samples were centrifuged for 20 min at 20,000×g (4° C.) to remove lysed synaptosomal membranes. MgSO4 (1 mM, final concentration) was added to the supernatant, which was then centrifuged for 45 min at 100,000×g (4° C.). The resulting vesicular pellet was resuspended in wash buffer at a concentration of 50 mg/ml (original tissue weight). […] Binding of [^3H]DHTBZ was performed as described by Teng et al. (1998). Briefly, 200 μl of the synaptic vesicle preparation (˜6 μg of protein) was incubated in wash buffer in the presence of [^3H]DHTBZ (2 nM final concentration) for 10 min at 25° C. The reaction was terminated by addition of 1 ml of cold wash buffer and rapid filtration through Whatman GF/F filters soaked in 0.5% polyethylenimine. Filters were washed three times with ice-cold wash buffer. Nonspecific binding was determined by coincubation with 20 μM tetrabenazine. All protein concentrations were determined by a BioRad protein assay (Bio-Rad, Richmond, Calif.).
Binding of [^3H]DHTBZ was performed as described by Teng et al. (1998). Briefly, 200 μl (˜6 μg protein) of the synaptic vesicle preparation was incubated in wash buffer in the presence of [^3H]DHTBZ (2 nM final concentration except in kinetic analyses wherein 0.25-500 nM DHTBZ was employed) for 10 m in at 25° C. The reaction was terminated by addition of 1 ml cold wash buffer and rapid filtration through Whatman GF/F filters soaked in 0.5% polyethylenimine. Filters were washed three times with ice-cold wash buffer. Radioactivity trapped in filters was counted using a liquid scintillation counter. Nonspecific binding was determined by coincubation with 20 μM TBZ. All protein concentrations were determined by a Bio-Rad protein assay (Bio-Rad Inc.).
Binding of[^3H]DHTBZ was performed as described by Teng et al. (1998). Briefly, 200 μl (˜5 μg protein) of the synaptic vesicle preparation was incubated in wash buffer in the presence of [^3H]DHTBZ (2 nM final concentration except in kinetic analyses wherein 0.25-500 nM DHTBZ was employed) for 10 m in at 25° C. The reaction was terminated by addition of 1 ml cold wash buffer and rapid filtration through Whatman GF/F filters soaked in 0.5% polyethylenimine. Filters were washed three times with ice-cold wash buffer. Radioactivity trapped in filters was counted using a liquid scintillation counter. Nonspecific binding was determined by coincubation with 20 μM TBZ. All protein concentrations were determined by a Bio-Rad protein assay (Bio-Rad Inc.).

[5] = target: T2, VMAT-2; assay type: in vivo; set-up: purified striatal vesicles prepared from treated rats; from tissue; host or cells: striatum of male Sprague-Dawley rats (synaptic vesicles; P2, P3, S3 fractions)
Procedure: Osmolarity was restored by addition of N-(2-hydroxyethyl)-piperazine-N′-2-ethanesulfonic acid (HEPES) and potassium tartrate 25 mM and 100 mM (final concentrations; pH 7.5 at 4° C.), respectively.

[6] = Striatal tissue DA content of treated rats (HPLC); assay type: in vivo, rat
Procedure: On the day of the assay, frozen tissue samples were thawed, sonicated for 3-5 s in tissue buffer (0.05 M sodium phosphate/0.03 M citric acid buffer with 15% methanol (v/v); pH 2.78), and centrifuged for 15 min at 22,000×g. Tissue pellets were retained and protein determined according to the method of Lowry et al. (1951). The supernatant was centrifuged a second time for 15 min at 22,000×g. 20 μl of supernatant were injected onto a high performance liquid chromatograph system coupled to an electrochemical detector (+0.73 V) for separation and quantitation of dopamine levels using the method of Chapin et al. (1986).

[7] = Vesicular DA content in purified striatal vesicles of treated rats; assay type: in vivo, rat; conditions: rats, reserpine 10 mg/kg i.p. 6 and 1 h before decapitation
Procedure: Purified striatal vesicles were prepared as described above. The resulting vesicular pellet was sonicated for approximately 5 sec in cold tissue buffer (0.05 M sodium phosphate/0.03 M citric acid buffer with 15% methanol (v/v); pH 2.5) at a concentration of 100 mg/ml (original wet weight of tissue), and centrifuged for 15 min at 22,000×g. Tissue pellets were retained and protein was determined according to the method of Lowry et al. (1951). 40 μl of supernatant was injected onto a high performance liquid chromatograph system coupled to an electrochemical detector (+0.73 V) for separation and quantitation of DA levels using the method of Chapin et al. (1986).

[8] = target: T3, plasmalemmal DA transporter (DAT) (Rattus norvegicus, UniProt P23977); assay: Plasmalemmal [3H]DA uptake in striatal synaptosomes prepared from treated rats; assay type: in vivo; conditions: αMT 150 mg/kg i.p. 5 and 1 h prior to and 3 h after first MDMA injection, MDMA 4 x 10 mg/kg s.c.
T3 construct: from tissue; host or cells: striatum of male Sprague-Dawley rats (synaptosomes, P2)
T3 sequence (P23977 whole entry): as the sequence (P23977 whole entry) above
Procedure: Uptake of [^3H]DA was determined in striatal synaptosomes prepared according to the method described by Kokoshka et al. (1998). Briefly, fresh striatal tissue was homogenized in cold 0.32 M sucrose and centrifuged (800×g for 12 min; 4° C.). The supernatant (S1) was then centrifuged (22,000×g for 15 min; 4° C.), and the resulting pellet (P2) was resuspended in ice-cold modified Kreb's buffer (in mM: 126 NaCl, 4.8 KCl, 1.3 CaCl2, 16 sodium phosphate, 1.4 MgSO4, 11 dextrose, 1-ascorbic acid, pH 7.4). Assays were conducted in Kreb's buffer. Each assay tube contained synaptosomal tissue (i.e., resuspended P2 obtained from 1.5 mg of original wet weight striatal tissue) and 1 μM pargyline. Nonspecific values were determined in the presence of 100 μM cocaine. After preincubation of assay tubes for 10 min at 37° C., assays were initiated by the addition of [^3H]DA (0.5 nM final concentration). Samples were incubated at 37° C. for 3 min. Samples were then filtered through Whatman GF/B filters (Brandel, Gaithersburg, Md.) soaked previously in 0.05% polyethylenimine. Filters were washed rapidly 3 times with 3 ml of ice-cold 0.32 M sucrose using a Brandel filtering manifold. […] Remaining resuspended P2 samples were assayed for protein concentrations according to the method of Lowry et al. (1951). In MDMA preincubation experiments, samples were preincubated with 10 μM MDMA for 30 min at 37° C. After 30 min, resuspended P2 fractions were “washed” by centrifugation (22,000×g for 15 min; 4° C.). The resulting pellet (P3) was then resuspeded in ice-cold Kreb's buffer, and once again centrifuged (22,000×g for 15 min; 4° C.) to obtain a P4 pellet that was subsequently resuspended and assayed. [^3H]WIN35428 binding (0.5 nM final concentration) was conducted in phosphate-buffered 0.32 M sucrose, pH 7.4, with synaptosomes obtained from 2 mg (original wet weight) of striatal tissue per reaction tube, and samples were incubated on ice for 2 hr. Samples were then filtered through Whatman GF/B filters (Brandel, Gaithersburg, Md.) soaked previously in 0.05% polyethylenimine. […]

[9] = target: T1, DAT; assay: [3H]WIN35428 binding in striatal synaptosomes prepared from treated rats; assay type: in vivo; conditions: αMT 150 mg/kg i.p., MDMA 4 x 10 mg/kg s.c.
Procedure: as §1

CCCCCCCCCCCCC(=O)N1CCCCC1CNC(=O)[C@@H](N)CCCCN.Cl.Cl (some centres unmarked) [NPC15437]
effect of PKC inhibitor pretreatment on the MDMA-induced deficit in vitro [1]: attenuated

CC(=O)O.Cn1cc(C2=C(c3cn(CCCN)c4ccccc34)C(=O)NC2=O)c2ccccc21 [Ro31-7549, 2-[1-3(Aminopropyl)indol-3-yl]-3(1-methylindol-3-yl)maleimide, acetate]
effect of PKC inhibitor pretreatment on the MDMA-induced deficit in vitro [1]: attenuated

COC(=O)[C@H]1[C@@H](OC(=O)c2ccccc2)C[C@@H]2CC[C@H]1N2C [cocaine, (−)cocaine hydrochloride]
decrease in VMAT-2 immunoreactivity in the P3 (synaptosomal membrane) fraction ([2]; cocaine 30 mg/kg i.p. single): 33% | increase in VMAT-2 immunoreactivity in the S3 (vesicle-enriched) fraction ([2]; cocaine 30 mg/kg i.p. single): 80%

CCc1cc(Cl)c(OC)c(C(=O)NC[C@@H]2CCCN2CC)c1O [eticlopride, (−)-Eticlopride hydrochloride]
effect of antagonist pretreatment on the methamphetamine-induced decrease in vesicular dopamine uptake [3]: attenuated | effect of antagonist pretreatment on the MPD-induced increase in VMAT-2 immunoreactivity in the vesicular subcellular fraction ([2]; antagonist 0.5 mg/kg i.p. 15 min prior to MPD 40 mg/kg s.c.): completely prevented | [3H]DHTBZ binding after antagonist per se ([4]; antagonist 0.5 mg/kg i.p.): did not affect | effect of antagonist pretreatment on the MPD-induced increase in [3H]DHTBZ binding ([4]; antagonist 0.5 mg/kg i.p. 15 min prior to MPD 40 mg/kg s.c., 1 h): completely prevented | effect of antagonist pretreatment on the METH-induced decrease in vesicular [3H]DA uptake ([5]; rat, in vivo): attenuated | effect of eticlopride on the MDMA-induced decrease in vesicular DA uptake ([5]; rat, in vivo): attenuated | vesicular [3H]DA uptake after antagonist per se ([5]; rats, antagonist 0.5 mg/kg i.p.): did not affect | effect of antagonist pretreatment on the MPD-induced increase in vesicular [3H]DA uptake ([5]; rats, antagonist 0.5 mg/kg i.p. 15 min prior to MPD 40 mg/kg s.c., 1 h): attenuated

COC(=O)[C@H]1[C@H]2C[C@@H]3c4[nH]c5cc(OC)ccc5c4CCN3C[C@H]2C[C@@H](OC(=O)c2cc(OC)c(OC)c(OC)c2)[C@@H]1OC [reserpine]
depletion in total striatal tissue DA levels ([6]; rats, reserpine 10 mg/kg i.p. 6 and 1 h before decapitation): > 98% | striatal vesicular DA levels [7]: below the detection limit

CC(N)(Cc1ccc(O)cc1)C(=O)O.Cl (stereo not drawn) [αMT, α-methyl-p-tyrosine hydrochloride]
effect of αMT pretreatment on the MDMA-induced decrease in DAT activity [8]: did not affect | effect of αMT pretreatment on the MDMA-induced deficit in WIN35428 binding [9]: did not prevent | striatal DA levels ([6]; αMT-treated rats, 150 mg/kg i.p.): 10.1±2.0 pg/1 μg protein
